Results as given in PubChem BioAssay (NCI).
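Following 48 hours of exposure in 96-well plates, responses at five concentrations were used to interpolate endpoints linearly. Here, GI50 denotes the concentration required for 50% inhibition of growth. TGI denotes the concentration required for complete inhibition of growth.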

Tests used:
Test in all cases: NCI tumour cell line growth inhibition, 48 h
UACC-257 melanoma = tested on: UACC-257 melanoma
NCI-H226 lung = tested on: NCI-H226 lung
SF-295 CNS = tested on: SF-295 CNS
HCC-2998 colon = tested on: HCC-2998 colon
SW-620 colon = tested on: SW-620 colon
SNB-75 CNS = tested on: SNB-75 CNS
OVCAR-4 ovarian = tested on: OVCAR-4 ovarian
BT-549 breast = tested on: BT-549 breast
ACHN renal = tested on: ACHN renal
IGROV1 ovarian = tested on: IGROV1 ovarian
A549 NSCLC = tested on: A549 NSCLC
SK-MEL-5 melanoma = tested on: SK-MEL-5 melanoma
OVCAR-3 ovarian = tested on: OVCAR-3 ovarian
MCF7 breast = tested on: MCF7 breast
KM12 colon = tested on: KM12 colon
SNB-19 CNS = tested on: SNB-19 CNS
U251 CNS = tested on: U251 CNS
NCI/ADR-RES ovarian = tested on: NCI/ADR-RES ovarian
HOP-62 NSCLC = tested on: HOP-62 NSCLC
MALME-3M melanoma = tested on: MALME-3M melanoma
CCRF-CEM leukemia = tested on: CCRF-CEM leukemia
OVCAR-5 ovarian = tested on: OVCAR-5 ovarian
T-47D breast = tested on: T-47D breast
HCT-15 colon = tested on: HCT-15 colon
SF-268 CNS = tested on: SF-268 CNS
COLO 205 colon = tested on: COLO 205 colon
MDA-MB-231 breast = tested on: MDA-MB-231 breast
K-562 leukemia = tested on: K-562 leukemia
HT29 colon = tested on: HT29 colon

Cn1nc(C(F)(F)F)c(-c2cc(C(F)(F)F)cc(C(F)(F)F)c2)c1-c1ccc(OCc2ccc(Cl)cc2)cc1O
GI50 (UACC-257 melanoma): 2.07 µM
TGI (UACC-257 melanoma): 6.11 µM
GI50 (NCI-H226 lung): 2.1 µM
TGI (NCI-H226 lung): 5.67 µM
GI50 (SF-295 CNS): 2.31 µM
TGI (SF-295 CNS): 7.3 µM
GI50 (HCC-2998 colon): 2.77 µM
TGI (HCC-2998 colon): 12.4 µM
GI50 (SW-620 colon): 3 µM
TGI (SW-620 colon): 11 µM
GI50 (SNB-75 CNS): 2.17 µM
TGI (SNB-75 CNS): 10.5 µM
GI50 (OVCAR-4 ovarian): 2.68 µM
TGI (OVCAR-4 ovarian): 13.3 µM
GI50 (BT-549 breast): 1.67 µM
TGI (BT-549 breast): 3.33 µM
GI50 (ACHN renal): 2.54 µM
TGI (ACHN renal): 10 µM
GI50 (IGROV1 ovarian): 2.71 µM
TGI (IGROV1 ovarian): 12.5 µM
GI50 (A549 NSCLC): 3.18 µM
TGI (A549 NSCLC): 11.7 µM
GI50 (SK-MEL-5 melanoma): 1.45 µM
TGI (SK-MEL-5 melanoma): 3.11 µM
GI50 (OVCAR-3 ovarian): 2.27 µM
TGI (OVCAR-3 ovarian): 10.7 µM
GI50 (MCF7 breast): 2.23 µM
TGI (MCF7 breast): 10.4 µM
GI50 (KM12 colon): 2.64 µM
TGI (KM12 colon): 10.7 µM
GI50 (SNB-19 CNS): 2.78 µM
TGI (SNB-19 CNS): 14.8 µM
GI50 (U251 CNS): 2.38 µM
TGI (U251 CNS): 12.1 µM
GI50 (NCI/ADR-RES ovarian): 2.81 µM
TGI (NCI/ADR-RES ovarian): 9.8 µM
GI50 (HOP-62 NSCLC): 2.82 µM
TGI (HOP-62 NSCLC): 8.57 µM
GI50 (MALME-3M melanoma): 1.99 µM
TGI (MALME-3M melanoma): 5.24 µM
GI50 (CCRF-CEM leukemia): 2.26 µM
TGI (CCRF-CEM leukemia): 14.9 µM
GI50 (OVCAR-5 ovarian): 3.29 µM
TGI (OVCAR-5 ovarian): 15 µM
GI50 (T-47D breast): 1.54 µM
TGI (T-47D breast): 8.4 µM
GI50 (HCT-15 colon): 2.14 µM
TGI (HCT-15 colon): 10.7 µM
GI50 (SF-268 CNS): 2.65 µM
TGI (SF-268 CNS): 13 µM
GI50 (COLO 205 colon): 1.7 µM
TGI (COLO 205 colon): 3.36 µM
GI50 (MDA-MB-231 breast): 2.15 µM
TGI (MDA-MB-231 breast): 5.69 µM
GI50 (K-562 leukemia): 0.62 µM
TGI (K-562 leukemia): 10.1 µM
GI50 (HT29 colon): 2.9 µM
